# Measurements as given in paper PMC9405123, “Design, Synthesis and Mechanistic Studies of Novel Isatin-Pyrazole Hydrazone Conjugates as Selective and Potent Bacterial MetAP Inhibitors” (Antibiotics, 2022).
# What was measured:
# E. faecalis = assay: Minimum inhibitory concentration (broth dilution); format: cell-based; conditions: Enterococcus faecalis, alone
# HK1 = assay: MIC on environmental MDR isolate (microdilution)
# SH28 = assay: MIC on environmental MDR isolate (microdilution); conditions: Aeromonas caviae
# K. pneumoniae = assay: Combination study with AMP or CIP
# S. aureus = assay: Minimum bactericidal concentration; format: cell-based, Staphylococcus aureus
# P. aeruginosa [1] = assay: Minimum bactericidal concentration; format: cell-based, Pseudomonas aeruginosa; conditions: Pseudomonas aeruginosa
# E. coli [2] = assay: Minimum inhibitory concentration (broth dilution); format: cell-based, Escherichia coli; conditions: Escherichia coli, alone, read-out: MIC
# Cytotoxicity assay (MTT) = format: cell-based; conditions: human, HEK293 cells, read-out: viable HEK293 cells
# Description: PS9 was tested for cytotoxicity against human embryonic kidney (HEK293) cells using a colorimetric MTT assay. HEK293 cells were grown at 37 °C in a humidified environment of 5% CO2 in DMEM media enriched with 10% FBS and 1% penicillin, streptomycin solution. HEK293 cells (1 × 10^4) were seeded in triplicate and incubated overnight in a CO2 incubator. After the treatment (5–200 μM) with PS9, the cells were kept for 48 h at 37 °C. Freshly prepared 5 mg/mL MTT was supplied to the samples and kept on incubation at 37 °C for 4–5 h. DMSO was added to solubilize the formazan crystals. A microplate reader (Bio-Rad, Hercules, CA, USA) was used for taking absorbance at 570 nm and all the experiments were done in triplicate.
# E. coli [3] = assay: Growth kinetics; format: cell-based, Escherichia coli
# Description: Bacterial strains were tested as mentioned in Habib et al.. Briefly, ½ MIC, MIC and 2MIC values of PS9 were taken to assess the growth of bacterial strains whereas untreated cells and media were taken as positive and negative control, respectively.
# B. subtilis [4] = assay: Minimum inhibitory concentration (broth dilution); format: cell-based; conditions: Bacillus subtilis, alone
# HsMetAP1b = molecular target: T1, HsMetAP1b (Homo sapiens, UniProt P53582); assay: MetAP enzyme inhibition, Morrison Ki (Met-AMC fluorescence); format: biochemical, H. sapiens; conditions: Morrison Ki method
# T1 construct: made in house
# JST68 = assay: MBC on environmental MDR isolate; conditions: Escherichia coli
# JST61 = assay: MIC on environmental MDR isolate (microdilution); conditions: Pantoea agglomerans
# HK91 = assay: MBC on environmental MDR isolate; conditions: Ralstonia
# LG1 = assay: MIC on environmental MDR isolate (microdilution)
# HK41 = assay: MIC on environmental MDR isolate (microdilution); conditions: Enterobacter cloacae
# B. subtilis [5] = assay: Growth inhibition screening (broth dilution); format: cell-based, Bacillus subtilis
# Outline: (§1)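 Standard NCCLS broth dilution in nutrient broth, with compounds dissolved in DMSO and tested at a final 250 µg/mL per well. About 2.5 × 10^5 cells/mL were inoculated and incubated overnight at 37 °C. Growth was read as culture turbidity at 590 nm.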
# E. coli [6] = assay: Minimum bactericidal concentration; format: cell-based, Escherichia coli
# S. aureus 33,591 = assay: In vivo antibacterial efficacy in infected larvae; conditions: PS9 1000 μg/mL 30 min post-infection, up to 72 h
# JST63 = assay: MIC on environmental MDR isolate (microdilution)
# LG71 = assay: MIC on environmental MDR isolate (microdilution); conditions: isolate LG71 Enterobacter cloacae
# E. coli [7] = assay: Growth inhibition screening (broth dilution); format: cell-based, Escherichia coli
# Outline: as §1
# P. aeruginosa [8] = assay: Growth inhibition screening (broth dilution); format: cell-based, Pseudomonas aeruginosa
# Outline: as §1
smiles,measurement,setting,value
"O=C1Nc2ccc(F)cc2/C1=N\NC(=O)c1cc(-c2cccc(Br)c2)n[nH]1 [PS9, (E)-3-(3-Bromophenyl)-N′-(5-Fluoro-2-Oxoindolin-3-Ylidene)-1H-Pyrazole-5-Carbohydrazide]",MIC,E. faecalis,8 µg/mL
same,MIC,HK1,16 µg/mL
same,MIC lower than standard antibiotic AMP,HK1; isolate HK1,16 times
same,MIC lower than third-generation drug CTX,HK1; isolate HK1,8 times
same,MIC,SH28,128 µg/mL
same,MIC in Combination,K. pneumoniae; combination PS9 + AMP,2 µg/mL
same,MIC in Combination,K. pneumoniae; combination PS9 + CIP,4 µg/mL
same,FICI,K. pneumoniae; combination with AMP,0.50
same,FICI,K. pneumoniae; combination with CIP,0.50
same,MBC/MIC Ratio (R*),S. aureus,8
same,MBC,S. aureus; Staphylococcus aureus,256 µg/mL
same,MBC,P. aeruginosa [1],16 µg/mL
same,MIC,E. coli [2],16 µg/mL
same,"viability at 48 h, 100 µg/mL",Cytotoxicity assay (MTT); 100 µg/mL,> 90%
same,viability at 48 h,Cytotoxicity assay (MTT); up to 200 µg/mL,> 75%
same,growth,E. coli [3]; 2MIC and MIC,no growth observed up to 24 h
same,time after inoculation at which log phase was observed,E. coli [3]; ½ MIC,6 h
same,MIC,B. subtilis [4],32 µg/mL
same,Ki,HsMetAP1b,632 ± 16.3 µM
same,MBC,JST68,256 µg/mL
same,MIC,JST61,1000 µg/mL
same,MBC,HK91,16 µg/mL
same,MIC,LG1,32 µg/mL
same,MIC,HK41,32 µg/mL
same,inhibition at 250 µg/mL,B. subtilis [5]; Bacillus subtilis,≥ 94%
same,% Growth Inhibition at 250 µg/mL,B. subtilis [5]; listed as C00009,100%
same,MBC/MIC Ratio (R*),E. coli [6],4
same,MBC,E. coli [6]; Escherichia coli,64 µg/mL
same,effect on death of infected larvae,"S. aureus 33,591",does not delay this
same,MIC,JST63,1000 µg/mL
same,MIC,LG71; Enterobacter cloacae,1020 µg/mL
same,MIC,LG71,>1024 µg/mL
same,inhibition at 250 µg/mL,E. coli [7]; Escherichia coli,≥ 94%
same,% Growth Inhibition at 250 µg/mL,E. coli [7]; listed as C00009,100%
same,inhibition at 250 µg/mL,P. aeruginosa [8]; Pseudomonas aeruginosa,≥ 94%
same,% Growth Inhibition at 250 µg/mL,P. aeruginosa [8]; listed as C00009,100%
